In patent US20220338504A1 (priority 2017, published 2022):
Where two headings read alike, the source gives them in different places. Marks after values point to notes of the source that are not given here.

What was measured:
C. perfringens [1] = type: in vivo, broilers (male Ross×Ross chicks); details: Virginiamycin 20 g/ton, formulated yeast 0.5 lb/ton, ground pepper 0.3 lb/ton, combination 0.3 + 0.5 lb/ton
C. perfringens [2] = type: in vivo, broilers (male Ross×Ross chicks); details: 20 g/ton
[3] = tested on: E. maxima and C. perfringens; type: in vivo, broilers (male Cobb×Cobb chicks); details: challenged, BMD 50.0 g/ton, encapsulated ground pepper 300 g/ton
[4] = tested on: E. maxima and C. perfringens; type: in vivo, broilers (male Cobb×Cobb chicks)
[5] = tested on: E. maxima and C. perfringens; type: in vivo, broilers (male Cobb×Cobb chicks); remark: listed apart in the source
[6] = tested on: E. maxima and C. perfringens; type: in vivo, broilers (male Cobb×Cobb chicks); remark: listed apart in the source
[7] = tested on: E. maxima and C. perfringens; type: in vivo, broilers (male Cobb×Cobb chicks); remark: listed apart in the source
[8] = tested on: Clostridium perfringens strain #6 (with coccidia / E. maxima); type: in vivo, broilers (male Ross×Ross chicks)
[9] = 0-21 d, challenged, BMD 50.0 g/ton, combination 0.30 lb/ton + 0.5 lb/ton + 3 × 10^5 cfu/g
[10] = 0-28 d, challenged, BMD 50.0 g/ton, combination 0.30 lb/ton + 0.5 lb/ton + 3 × 10^5 cfu/g
[11] = 14-21 d, challenged, BMD 50.0 g/ton, combination 0.30 lb/ton + 0.5 lb/ton + 3 × 10^5 cfu/g
[12] = 14-28 d, challenged, BMD 50.0 g/ton, combination 0.30 lb/ton + 0.5 lb/ton + 3 × 10^5 cfu/g
[13] = 0-21 d, challenged, BMD 50.0 g/ton, combination 4.0 lb/ton + 3 × 10^5 cfu/g
[14] = 0-28 d, challenged, BMD 50.0 g/ton, combination 4.0 lb/ton + 3 × 10^5 cfu/g
[15] = 14-21 d, challenged, BMD 50.0 g/ton, combination 4.0 lb/ton + 3 × 10^5 cfu/g
[16] = 14-28 d, challenged, BMD 50.0 g/ton, combination 4.0 lb/ton + 3 × 10^5 cfu/g
[17] = 0-21 d, challenged, BMD 50.0 g/ton, combination 0.3 lb/ton + 3 × 10^5 cfu/g
[18] = 0-28 d, challenged, BMD 50.0 g/ton, combination 0.3 lb/ton + 3 × 10^5 cfu/g
[19] = 14-21 d, challenged, BMD 50.0 g/ton, combination 0.3 lb/ton + 3 × 10^5 cfu/g
[20] = 14-28 d, challenged, BMD 50.0 g/ton, combination 0.3 lb/ton + 3 × 10^5 cfu/g
[21] = 0-21 d, challenged, BMD 50.0 g/ton, combination 0.5 lb/ton + 3 × 10^5 cfu/g
[22] = 0-28 d, challenged, BMD 50.0 g/ton, combination 0.5 lb/ton + 3 × 10^5 cfu/g
[23] = 14-21 d, challenged, BMD 50.0 g/ton, combination 0.5 lb/ton + 3 × 10^5 cfu/g
[24] = 14-28 d, challenged, BMD 50.0 g/ton, combination 0.5 lb/ton + 3 × 10^5 cfu/g

Virginiamycin
Body weight gain (C. perfringens [1]; 15 d): 0.38 kg | Feed Conversion (C. perfringens [1]; 15 d): 1.32^xy | Feed consumption (C. perfringens [1]; 15 d): 0.44^ab Kg | Body weight gain (C. perfringens [1]; 35 d): 1.57^xy Kg | Feed Conversion (C. perfringens [1]; 35 d): 1.73 | Feed consumption (C. perfringens [1]; 35 d): 2.62 kg | Body weight gain (C. perfringens [1]; 42 d): 2.17 kg | Feed Conversion (C. perfringens [1]; 42 d): 1.76 | Feed consumption (C. perfringens [1]; 42 d): 3.70 kg | Necrotic enteritis related mortality, % (C. perfringens [1]): 3.50% | Total Mortality % (C. perfringens [1]): 0.50% | Total Mortality % (C. perfringens [2]): 5.36% | Body weight gain (C. perfringens [2]; 15 d): 0.33 kg | Feed Conversion (C. perfringens [2]; 15 d): 1.33^b | Feed consumption (C. perfringens [2]; 15 d): 0.39 kg | Body weight gain (C. perfringens [2]; 35 d): 1.10^ab Kg | Feed Conversion (C. perfringens [2]; 35 d): 1.62^abc | Feed consumption (C. perfringens [2]; 35 d): 1.73^x Kg | Body weight gain (C. perfringens [2]; 42 d): 2.27 kg | Feed Conversion (C. perfringens [2]; 42 d): 1.74^abc | Feed consumption (C. perfringens [2]; 42 d): 3.90^xy Kg

bacitracin methylene disalycilate [BMD]
Body weight gain ([3]; 0-21 d): 0.44 kg | Feed Conversion ([3]; 0-21 d): 1.79^ab | Feed consumption ([3]; 0-21 d): 0.79 kg | Body weight gain ([3]; 0-28 d): 0.65 kg | Feed Conversion ([3]; 0-28 d): 1.88^b | Feed consumption ([3]; 0-28 d): 1.22 kg | Body weight gain ([3]; 14-21 d): 0.16^b Kg | Feed Conversion ([3]; 14-21 d): 2.56^b | Feed consumption ([3]; 14-21 d): 0.41 kg | Body weight gain ([3]; 14-28 d): 0.37^ab Kg | Feed Conversion ([3]; 14-28 d): 2.58^b | Feed consumption ([3]; 14-28 d): 0.95 kg | Necrotic enteritis lesion score ([3]; DOT 21, 0 to 3 score, 0 normal, 3 most severe): 1.1^b | Necrotic enteritis related mortality, % [3]: 28.1^b % | Body weight gain [4, 9]: 0.52^ab Kg | Feed Conversion [4, 9]: 1.81^a | Feed consumption [4, 9]: 0.94 kg | Body weight gain [4, 10]: 0.77 kg | Feed Conversion [4, 10]: 1.78^b | Feed consumption [4, 10]: 1.37 kg | Body weight gain [4, 11]: 0.28^b Kg | Feed Conversion [4, 11]: 1.77^b | Feed consumption [4, 11]: 0.49 kg | Body weight gain [4, 12]: 0.53 kg | Feed Conversion [4, 12]: 1.73^bc | Feed consumption [4, 12]: 0.91 kg | Necrotic enteritis lesion score ([4]; DOT 21, 0 to 3 score, challenged, BMD 50.0 g/ton, combination 0.30 lb/ton + 0.5 lb/ton + 3 × 10^5 cfu/g): 0.5^b | Necrotic enteritis lesion scores compared to the challenged control birds ([4]; P<0.05): lower | Overall FCR compared to the challenged no feed additive control ([4]; P<0.05): reduced | necrotic enteritis related mortality compared to the challenged control birds ([4]; P<0.05): lower | Necrotic enteritis related mortality, % ([4]; challenged, BMD 50.0 g/ton, combination 0.30 lb/ton + 0.5 lb/ton + 3 × 10^5 cfu/g): 2^b % | FCR compared to the challenge control birds ([4]; d 14-28, P<0.05): decreased | Body weight gain compared to the challenged no feed additive control group ([4]; in vivo): not impacted | controlling C. perfringens disease challenge ([4]; in vivo): effective | Body weight gain [5, 13]: 0.57^a Kg | Feed Conversion [5, 13]: 1.53^c | Feed consumption [5, 13]: 0.87 kg | Body weight gain [5, 14]: 0.81^a Kg | Feed Conversion [5, 14]: 1.60^b | Feed consumption [5, 14]: 1.30 kg | Body weight gain [5, 15]: 0.32^ab Kg | Feed Conversion [5, 15]: 1.72^b | Feed consumption [5, 15]: 0.55 kg | Body weight gain [5, 16]: 0.56^a Kg | Feed Conversion [5, 16]: 1.75^b | Feed consumption [5, 16]: 0.98^a Kg | Necrotic enteritis lesion score ([5]; DOT 21, 0 to 3 score, challenged, BMD 50.0 g/ton, combination 4.0 lb/ton + 3 × 10^5 cfu/g): 0.79^b | Necrotic enteritis lesion score compared to the challenged control birds ([5]; P<0.05): lower | Necrotic enteritis related mortality, % ([5]; challenged, BMD 50.0 g/ton, combination 4.0 lb/ton + 3 × 10^5 cfu/g): 0.0^b % | overall FCR compared to the challenged control birds ([5]; d 0-28): reduced | overall body weight gain compared to the challenged control birds ([5]; d 0-28): increased | FCR compared to the challenge control birds ([5]; d 14-28, P<0.05): decreased | body weight gain compared to the challenge control birds ([5]; d 14-28, P<0.05): increased | controlling C. perfringens disease challenge ([5]; in vivo): effective | necrotic enteritis mortality compared to the challenged control group ([5]; in vivo): lower | Body weight gain [6, 17]: 0.66^a Kg | Feed Conversion [6, 17]: 1.62^ab | Feed consumption [6, 17]: 1.07 kg | Body weight gain [6, 18]: 0.92^ab Kg | Feed Conversion [6, 18]: 1.67^a | Feed consumption [6, 18]: 1.54 kg | Body weight gain [6, 19]: 0.30^b Kg | Feed Conversion [6, 19]: 1.95^b | Feed consumption [6, 19]: 0.58 kg | Body weight gain [6, 20]: 0.56^ab Kg | Feed Conversion [6, 20]: 1.93^b | Feed consumption [6, 20]: 1.08 kg | Necrotic enteritis lesion score ([6]; DOT 21, 0 to 3 score, challenged, BMD 50.0 g/ton, combination 0.3 lb/ton + 3 × 10^5 cfu/g): 0.50^b | Necrotic enteritis lesion score compared to the challenged control birds ([6]; P<0.05): lower | Necrotic enteritis related mortality, % ([6]; challenged, BMD 50.0 g/ton, combination 0.3 lb/ton + 3 × 10^5 cfu/g): 0.0% | overall body weight gain compared to the challenged control ([6]; d 0-28): increased | FCR compared to the challenge control birds ([6]; d 14-28, P<0.05): decreased | body weight gain compared to the challenge control birds ([6]; d 14-28, P<0.05): increased | controlling C. perfringens disease challenge ([6]; in vivo): effective | Body weight gain [7, 21]: 0.34^a Kg | Feed Conversion [7, 21]: 2.21^b | Feed consumption [7, 21]: 0.75 kg | Body weight gain [7, 22]: 0.57 kg | Feed Conversion [7, 22]: 2.08^b | Feed consumption [7, 22]: 1.19 kg | Body weight gain [7, 23]: 0.15^bc Kg | Feed Conversion [7, 23]: 2.30^b | Feed consumption [7, 23]: 0.34 kg | Body weight gain [7, 24]: 0.38^ab Kg | Feed Conversion [7, 24]: 2.05^b | Feed consumption [7, 24]: 0.78 kg | Necrotic enteritis lesion score ([7]; DOT 21, 0 to 3 score, challenged, BMD 50.0 g/ton, combination 0.5 lb/ton + 3 × 10^5 cfu/g): 0.3^c | Necrotic enteritis lesion score compared to the challenged control birds ([7]; P<0.05): lower | necrotic enteritis mortality compared to the challenged control group ([7]; P<0.05): decreased | Necrotic enteritis related mortality, % ([7]; challenged, BMD 50.0 g/ton, combination 0.5 lb/ton + 3 × 10^5 cfu/g): 3^b % | overall FCR compared to the challenged control birds ([7]; d 0-28, P<0.05): decreased | body weight gain compared to the challenge control birds ([7]; d 14-28): similar | FCR compared to the challenge control birds ([7]; d 14-28, P<0.05): decreased | controlling C. perfringens disease challenge ([7]; in vivo): effective | FCR compared to birds fed with no feed additive ([8]; 28 days of age, P<0.05): decreased | body weight gain compared to birds fed with no feed additive ([8]; 28 days of age, P<0.05): increased | Body weight gain compared to the control fed birds ([8]; 41 days of age, P<0.05): increased | FCR compared to the no feed additive control group ([8]; 41 days of age, P<0.05): decreased | Necrotic enteritis lesion score compared to the no feed additive control fed birds ([8]; in vivo): numerically reduced | controlling C. perfringens disease challenge ([8]; in vivo): effective | necrotic enteritis related mortality compared to the no feed additive control fed birds ([8]; in vivo): numerically reduced
